Laboratory results as given in a melting point compilation (Tetko et al.).

Row | Compound | melting point [°C]
1 | CC12CCC(C(OC(=O)c3ccc([N+](=O)[O-])cc3)=CC1=O)C2(C)C (centres undefined) | 121
2 | COc1ccccc1N=Nc1ccccc1 | 41
3 | CCC(C1CCc2cc(O)ccc2C1)C(C)(C)C(=O)O (centres undefined) | 163
4 | O=[N+]([O-])c1ccc2c(c1)OCO2 | 145 to 149
5 | C#Cc1ccc(F)cc1 | 28
6 | Cn1ncc(C(=O)Cl)c1Cl | 50 to 52
7 | O=C(Oc1c(Cl)cc(Cl)cc1Cl)C(=O)Oc1c(Cl)cc(Cl)cc1Cl | 188 to 192
8 | Clc1cccc(Cl)c1-c1nnn[nH]1 | 203
9 | Cc1c(Nc2ncccc2C(=O)O)cccc1C(F)(F)F | 226
10 | Nc1cnccc1C(F)(F)F | 55 to 56
11 | Brc1cc(Br)c(Oc2c(Br)cc(Br)c(Br)c2Br)c(Br)c1Br | 206
12 | Clc1ccc(N2CCNCC2)cc1Cl | 63
13 | CCOC(=O)CC1Sc2ccccc2NC1=S (centres undefined) | 106 to 108
14 | CCCCOC(=O)C(=O)C1C(C)CC2C3CC(F)C4=CC(=O)C=CC4(C)C3C(O)CC21C (centres undefined) | 195
15 | CC1(C)CC(=O)c2cc(-c3ccccc3)n(-c3cccc(C(F)(F)F)c3)c2C1 | 145 to 147
16 | Cc1c(CO)cnn1-c1ccc(F)cc1 | 120 to 121
17 | COc1cscc1C(N)=O | 120 to 121
18 | COc1cc([N+](=O)[O-])c(OC)cc1N | 153 to 157
19 | O=C1NC(=O)C(c2ccccc2)(c2ccccc2)N1 | 295
20 | COc1cc(CC(C)N)c(OC)cc1C (centres undefined) | 60.8
21 | Cc1cccc(CCC(=O)O)c1 | 41 to 44
22 | CCCCOC(=O)C(=O)OCCCC | -29
23 | Cc1nc2cc(O)ccc2s1 | 186
24 | N#CC12CCN(CC1)CC2 | 133

Row | Compound | melting point [°C]
25 | CCc1nn(C)c(C(=O)NCc2ccc(C(C)(C)C)cc2)c1Cl | 65
26 | O=C(O)CSCC(=O)O | 129
27 | COc1cc(Cl)ccc1[N+](=O)[O-] | 71
28 | O=[N+]([O-])c1cc(O)ccc1Cl | 127
29 | COc1ccc2c(c1)CCC(=Cc1ccccc1)C2=O | 75 to 75.5
30 | CCc1cccc2c1CCCC2 | -44.5
31 | Nc1ccc(C(F)(F)F)c(F)c1 | 56
32 | C1CCCCCCCCCCCC1 | 23
33 | CC(C)(C)c1ccc(CCO)cc1 | 33
34 | CC1(C)OC(=O)C(=C2CCCN2)C(=O)O1 | 171 to 175
35 | CC(C)(C)OC(=O)N1CCC(c2nc(C(=O)O)cs2)CC1 | 162 to 166
36 | C=C1C(C)C2C(Cc3ccccc3)NC(=O)C23OC(=O)CCC(O)CCCC(C)CC=CC3C1O (centres undefined) | 203 to 205
37 | Cn1c(=O)oc2ccccc21 | 82 to 86
38 | Cc1cc(C)nc(Nc2ccccc2)n1 | 96.3
39 | CCC(CCC(C)C1CCC2C3=CC=C4CC(O)CCC4(C)C3CCC21C)C(C)C (centres undefined) | 144
40 | CCSC(SCC)C(OC(C)=O)C(OC(C)=O)C(OC(C)=O)C(COC(C)=O)OC(C)=O (centres undefined) | 111 to 112
41 | C=CCOC(=O)CCC | -80
42 | CCCCCCCc1ccc(NC(=O)c2ccc(CC)cc2)cc1 | 102
43 | CCCCCCF | -103
44 | OCC(Br)C(Br)CO (centres undefined) | 85
45 | C#CCCCCCCC | -50
46 | Cc1ccc(C(C)(Cl)C(=O)O)cc1 (centres undefined) | 112
47 | O=C(c1noc(-c2ccc(Cl)cc2)c1S(=O)(=O)c1ccccc1)c1cccc2ccccc12 | 169
48 | CC(=O)Oc1c(-c2ccccn2)[nH]c2ccccc12 | 130

Row | Compound | melting point [°C]
49 | CCc1n[nH]c2cc(-c3ccccc3)nn12 | 188 to 190
50 | CC(O)CC(=O)O (centres undefined) | 49
51 | CC(C)(C)NC(N)=O | 178 to 182
52 | FC(F)OC(F)F | -123
53 | O=C(NCCc1ncc(C(F)(F)F)cc1Cl)c1ccccc1C(F)(F)F | 118
54 | COC(=O)c1cc(C)nc(Cl)n1 | 110 to 111
55 | O=C(O)C=Cc1cc([N+](=O)[O-])ccc1Cl | 218 to 222
56 | Cc1ccc2c(CCl)c(C)ccc2c1CCl | 228
57 | CCOC(=O)C(F)(F)C(F)(F)F | 75.5
58 | O=[N+]([O-])c1ccc2c(c1)OCCOCCOCCOCCOCCO2 | 85 to 88
59 | CC(c1ncncc1F)C(O)(Cn1cncn1)c1ccc(F)cc1F (centres undefined) | 128
60 | N[C@@H](Cc1cc(Br)c(O)c(Br)c1)C(=O)O | 245
61 | Cc1cccc(C(=O)O)n1 | 130
62 | Clc1ccc2c(c1)Oc1ccccc1O2 | 88
63 | CC1=NN(c2ccc([N+](=O)[O-])cc2)C(=O)C1[N+](=O)[O-] (centres undefined) | 119
64 | CN1CCOCC1 | -65
65 | Clc1ncnc2sccc12 | 105
66 | CC(O)c1ccc2ccccc2c1 (centres undefined) | 74
67 | CC(C)CC=CC(C(=O)O)C1=CCC2(C)C(CCC3C4CCC(O)C4(C)CCC32)C1 (centres undefined) | 200
68 | CCCCCCCCC=CCCCCCCCCCCCCO | 35
69 | O=C(C1CCNCC1)N1CCCCCC1 | 41 to 47
70 | CN1CCN(C2=Nc3ccccc3Sc3ccc(Cl)cc32)CC1 | 119
71 | CC(C)S(=O)(=O)c1csc(C(=O)O)c1N | 158
72 | N#Cc1ccnc(C#N)c1 | 90

Row | Compound | melting point [°C]
73 | O=C(NCC(c1ccccc1)c1ccccc1)c1ccccc1 | 123
74 | O=C(N[C@@H](Cc1ccc(F)cc1)C(=O)O)OCC1c2ccccc2-c2ccccc21 | 185
75 | COc1ccc(C(N)=NO)cc1 | 119 to 121
76 | Cc1cc(Br)ccc1N=C=S | 45 to 46
77 | Nc1c(C(=O)O)sc2ncccc12 | 202 to 204
78 | c1ccc(-c2nnc(-c3ccccn3)c(-c3ccccn3)n2)nc1 | 186 to 188
79 | C/C(CCc1oc2c(Br)cc(Br)cc2c1-c1ccc(C)o1)=N/O | 157 to 158
80 | O=C1OC(=O)C2C3C=CC(C12)C1C(=O)OC(=O)C31 (centres undefined) | 360
81 | O=c1cc(C=C(O)C(F)(F)C(F)(F)F)[nH]c(=O)[nH]1 | 278 to 281
82 | CCCCOCCOCCCC | -69.1
83 | O=C(O)COc1ccc([N+](=O)[O-])cc1 | 182 to 188
84 | CCCCC(C)CC(O)C=CC1C(O)CC(=O)C1CCCCC=CC(=O)O (centres undefined) | 97
85 | ON=C(Cl)c1ccc(Cl)cc1Cl | 93 to 95
86 | C=CC(=O)OCCCCO | -112
87 | CCN1CCCC1CNC(=O)c1cc(S(=O)(=O)CC)c(N)cc1OC (centres undefined) | 126
88 | COc1ccc(CC(N)=S)cc1OC | 136 to 138
89 | O=[N+]([O-])c1ccc2c(c1)Cc1cc([N+](=O)[O-])ccc1-2 | 334
90 | Nc1ccc(C/C(=N/O)c2ccc(N)cc2)cc1 | 146 to 147
91 | CCCCCCCCCCCCCC(CCCCCCCCCCCC)CCCCCCCCCCCC | 13.7
92 | Cc1cc2c(nn1)CCc1nonc1-2 | 143 to 145
93 | CCC1=[N+]([O-])C(C)(C)N(C)C1(C)C | 32 to 34
94 | N#CC1=C(C#N)C(=O)C(NCCc2ccccc2)=C(Cl)C1=O | 265 to 267
